One data set has as its system EV-A71 IRES. As to the kind of experiment: Bicistronic luciferase reporter assay. The class given is cell-based, human enterovirus A71 (EV-A71) strain 41. As to conditions: RD cells, various concentrations, 12 h. The protocol:
To validate this finding, we also transfected RD cells with a bicistronic reporter construct which had been established and validated previously. Similarly, the transfected cells were treated with ZAF-47 at various concentrations and then incubated for 12 h before luminescence detection. The construct comprises a human cytomegalovirus (CMV) promoter with a downstream Renilla luciferase (R Luc) gene and an EV-A71 strain 41 IRES with a downstream firefly luciferase (F Luc) gene (Figure 4f). This means that R Luc can be expressed by the CMV promoter via cap-dependent translation while F Luc can be expressed by the EV-A71 IRES via cap-independent translation. An accurate determination of IRES activity would be to use the ratio of F Luc luminescence reading to R Luc luminescence reading (F Luc/R Luc). The transfected cells were also treated with negative control, DMSO and positive control, apigenin, an EV-A71 IRES inhibitor [53].
Seeded 96-well white plates (Corning), with 2 × 10^4 RD cells per well, were incubated overnight at 37 °C with 5% CO2. After which, a bicstronic luciferase reporter construct was used to transfect the cells, as described in our previous work, for 12 h at 37 °C with 5% CO2. […]

Data set [1] is described as follows: Cell viability assay (alamarBlue). The class given is cell-based, human. The conditions noted are these: human, RD cells. The procedure: (§1) Firstly, we performed cell viability assay to evaluate the cytotoxicity profile of the 19 hits. Cells seeded overnight were treated with the hit compounds at 10 µM. […] Anti-EV-A71 activity of AGP-253 had been illustrated and discussed previously. We were particularly interested in ZAF-46 and ZAF-47 as they belonged to the same series bearing novel 14-quinolinoxy and 17-hydro-8,9-olefin modifications (Figure 2b) that could potentially open up new targets for EV-A71 therapeutics. Additional cell viability assays were performed for ZAF-46 and ZAF-47 at different concentrations to identify the low cytotoxic concentrations for downstream post-treatment assays. For post-treatment assays, cells seeded overnight were infected with EV-A71 and subsequently treated with ZAF-46 and ZAF-47 at different concentrations. […] Treatment with ZAF-46 led to 1.4 log reduction at 10 µM and 2.4 log reduction at 20 µM (Figure 2c) while treatment with ZAF-47 led to 0.8 log reduction at 5 µM, 1.1 log reduction at 10 µM and 2.1 log reduction at 20 µM (Figure 2d). CC50 and IC50 for both compounds were determined and used to derive their SI (Table 2). ZAF-47 was selected for further downstream analysis due to its higher SI value which indicate higher pharmacological value for clinical use.
(§2) To determine the cytotoxicity profiles of the hits, cell viability assay was performed. Seeded 96-well plates, with 2 × 10^4 RD cells per well, were incubated overnight at 37 °C with 5% CO2. Different concentrations of drug hits, diluted by reduced serum DMEM, were used to treat the seeded cells for 12 h at 37 °C with 5% CO2. Reduced serum DMEM, was employed as the negative control and 0.1% DMSO as the vehicle control for this step. Subsequently, the supernatant was replaced with alamarBlue^TM Cell Viability Reagent (Thermo Fisher Scientific, Waltham, MA, USA) (100 µL), diluted 10-fold in reduced serum DMEM, and incubated for 3 h at 37 °C with 5% CO2. Fluorescence intensity in each well was measured at 570 nm excitation wavelength and 600 nm emission wavelength in each well by the Infinite^TM 200 series microplate reader (Tecan, Männedorf, Switzerland) and normaliszd with the negative control to determine the relative cell viability.
A general note: Alamar Blue is a resazurin reagent that responds to reducing activity.

The next data set deals with RD cells. As to the kind of experiment: Cell viability assay (alamarBlue). The conditions noted are these: 10 µM, 12 h. The class given is cell-based, human. The protocol: as §1, §2

The results in this text go back to PMC8880313, “Discovery of Novel Andrographolide Derivatives as Antiviral Inhibitors against Human Enterovirus A71” (Pharmaceuticals, 2022).

Usually CC50 stands for the concentration giving 50% cytotoxicity. A lower CC50 goes with harm at low concentration.

Take `CC(=O)OC[C@]1(C)C(=O)CC[C@@]2(C)C(C/C=C3/C(=O)OC[C@@H]3Oc3cccc4cccnc34)=C(C)CC[C@@H]21` [ZAF-47, (14β)-(8′-Quinolinoxy)-3-ketone-9-dehydro-17-hydro-19-acetoxy–andrographolide]: the “IRES activity (F Luc/R Luc)” value in the data set on EV-A71 IRES is recorded as “did not reduce IRES activity”. The CC50 at 12 h in data set [1] amounted to 29.6 µM. Also, in the data set with RD cells, the cytotoxicity result is listed as “low cytotoxicity”.
